# Source: ChEMBL document CHEMBL4706525, “Designing an eEF2K-Targeting PROTAC small molecule that induces apoptosis in MDA-MB-231 cells” (Eur J Med Chem, 2020)
# pIC50: −log10 of the molar value. Active and inactive are the calls of the source. The calls are words filed in the database; no cut-off is given here.
# Assays:
# [1] = biological target: T1, Protein cereblon/Eukaryotic elongation factor 2 kinase (Homo sapiens) (UniProt O00418+Q96SW2); experiment: Protac activity at eEF2K/E3 ubiquitin ligase in human MDA-MB-231 cells assessed as degradation of eEF2K at 200 uM measured after 24 hrs by western blot assay; assay type: cell-based
# T1 sequence (Q96SW2 whole entry, looked up, one chain of several): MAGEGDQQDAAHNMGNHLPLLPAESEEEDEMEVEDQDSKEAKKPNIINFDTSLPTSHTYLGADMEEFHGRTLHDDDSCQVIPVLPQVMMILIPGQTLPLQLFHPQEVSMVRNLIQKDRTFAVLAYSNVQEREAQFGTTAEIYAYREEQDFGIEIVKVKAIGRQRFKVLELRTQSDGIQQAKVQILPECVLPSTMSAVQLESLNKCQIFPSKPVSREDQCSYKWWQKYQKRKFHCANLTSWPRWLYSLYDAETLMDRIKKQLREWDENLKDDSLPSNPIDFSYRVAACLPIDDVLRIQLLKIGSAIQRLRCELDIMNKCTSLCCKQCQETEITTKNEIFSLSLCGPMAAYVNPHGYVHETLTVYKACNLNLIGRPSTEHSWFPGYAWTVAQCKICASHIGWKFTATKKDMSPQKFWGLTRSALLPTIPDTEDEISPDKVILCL
# [2] = biological target: T2, Eukaryotic elongation factor 2 kinase (Homo sapiens, UniProt O00418); experiment: Inhibition of eEF2K (unknown origin)
# T2 sequence (O00418 whole entry): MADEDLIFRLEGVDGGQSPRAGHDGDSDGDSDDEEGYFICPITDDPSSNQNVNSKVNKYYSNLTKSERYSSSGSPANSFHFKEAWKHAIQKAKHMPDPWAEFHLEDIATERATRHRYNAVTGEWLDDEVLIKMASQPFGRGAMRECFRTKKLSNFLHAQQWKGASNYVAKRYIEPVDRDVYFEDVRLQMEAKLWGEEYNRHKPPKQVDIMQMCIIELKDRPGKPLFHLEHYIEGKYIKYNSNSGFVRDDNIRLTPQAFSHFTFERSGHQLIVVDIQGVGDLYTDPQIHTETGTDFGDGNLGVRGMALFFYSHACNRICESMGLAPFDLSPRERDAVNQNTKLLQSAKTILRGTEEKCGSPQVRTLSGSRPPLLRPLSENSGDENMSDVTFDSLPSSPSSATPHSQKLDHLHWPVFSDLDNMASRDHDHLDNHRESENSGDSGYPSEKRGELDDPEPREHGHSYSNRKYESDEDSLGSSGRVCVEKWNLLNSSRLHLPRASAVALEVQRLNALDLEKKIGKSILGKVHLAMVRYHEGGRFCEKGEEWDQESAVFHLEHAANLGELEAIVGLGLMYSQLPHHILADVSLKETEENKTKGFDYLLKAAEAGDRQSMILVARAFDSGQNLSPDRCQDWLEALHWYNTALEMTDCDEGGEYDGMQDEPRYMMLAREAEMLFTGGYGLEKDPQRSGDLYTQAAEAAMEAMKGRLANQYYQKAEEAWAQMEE
# MDA-MB-231 [3] = experiment: Induction of apoptosis in human MDA-MB-231 cells assessed as necrotic cells at 100 uM measured after 24 hrs by Annexin V/PI staining based flowcytometry method (reference value: 0.44%); assay type: functional
# MDA-MB-231 [4] = experiment: Induction of apoptosis in human MDA-MB-231 cells assessed as upregulation of cleaved caspase3 expression at 50 to 200 uM measured after 24 hrs by western blot assay; assay type: functional, cell-based; settings: dose 50-200 µM
# MDA-MB-231 [5] = experiment: Induction of apoptosis in human MDA-MB-231 cells at 100 uM measured after 24 hrs by Hoechst staining based fluorescence microscopic method; assay type: functional, cell-based
# [6] = biological target: T1, Protein cereblon/Eukaryotic elongation factor 2 kinase (Homo sapiens); experiment: Protac activity at eEF2K/E3 ubiquitin ligase in human MDA-MB-231 cells assessed as degradation of eEF2K at 100 uM pretreated with MG-132 for 2 hrs followed by compound addition measured after 8 hrs by western blot assay; assay type: cell-based
# MDA-MB-231 [7] = experiment: Induction of apoptosis in human MDA-MB-231 cells assessed as necrotic cells at 50 uM measured after 24 hrs by Annexin V/PI staining based flowcytometry method (reference value: 0.44%); assay type: functional
# [8] = biological target: T1, Protein cereblon/Eukaryotic elongation factor 2 kinase (Homo sapiens); experiment: Protac activity at eEF2K/E3 ubiquitin ligase in human MDA-MB-231 cells assessed as degradation of p-eEF2K measured after 24 hrs by western blot assay; assay type: cell-based; settings: dose 50-200 µM
# MDA-MB-231 [9] = experiment: Induction of apoptosis in human MDA-MB-231 cells assessed as early apoptotic cells at 200 uM measured after 24 hrs by Annexin V/PI staining based flowcytometry method (reference value: 3.12%); assay type: functional
# MDA-MB-231 [10] = experiment: Induction of apoptosis in human MDA-MB-231 cells assessed as viable cells at 50 uM measured after 24 hrs by Annexin V/PI staining based flowcytometry method (reference value: 94.63%); assay type: functional; settings: read-out: Activity
# MDA-MB-231 [11] = experiment: Induction of apoptosis in human MDA-MB-231 cells assessed as early apoptotic cells at 50 uM measured after 24 hrs by Annexin V/PI staining based flowcytometry method (reference value: 3.12%); assay type: functional
# [12] = biological target: T1, Protein cereblon/Eukaryotic elongation factor 2 kinase (Homo sapiens); experiment: Protac activity at eEF2K/E3 ubiquitin ligase in human MDA-MB-231 cells assessed as degradation of eEF2K measured after 24 hrs by western blot assay; assay type: cell-based; settings: dose 50-200 µM
# MDA-MB-231 [13] = experiment: Induction of apoptosis in human MDA-MB-231 cells assessed as decrease in Bcl2 expression at 50 to 200 uM measured after 24 hrs by western blot assay; assay type: functional, cell-based; settings: dose 50-200 µM
# MDA-MB-231 [14] = experiment: Induction of apoptosis in human MDA-MB-231 cells assessed as viable cells at 100 uM measured after 24 hrs by Annexin V/PI staining based flowcytometry method (reference value: 94.63%); assay type: functional; settings: read-out: Activity
# MDA-MB-231 [15] = experiment: Induction of apoptosis in human MDA-MB-231 cells assessed as necrotic cells at 200 uM measured after 24 hrs by Annexin V/PI staining based flowcytometry method (reference value: 0.44%); assay type: functional
# MDA-MB-231 [16] = experiment: Induction of apoptosis in human MDA-MB-231 cells assessed as late apoptotic cells at 100 uM measured after 24 hrs by Annexin V/PI staining based flowcytometry method (reference value: 1.81%); assay type: functional
# MDA-MB-231 [17] = experiment: Induction of apoptosis in human MDA-MB-231 cells assessed as upregulation of Bax expression at 50 to 200 uM measured after 24 hrs by western blot assay; assay type: functional, cell-based; settings: dose 50-200 µM
# [18] = biological target: T1, Protein cereblon/Eukaryotic elongation factor 2 kinase (Homo sapiens); experiment: Protac activity at eEF2K/E3 ubiquitin ligase in human MDA-MB-231 cells assessed as degradation of eEF2K at 100 uM pretreated with thalidomide for 2 hrs followed by compound addition measured after 8 hrs by western blot assay; assay type: cell-based
# MDA-MB-231 [19] = experiment: Induction of apoptosis in human MDA-MB-231 cells assessed as early apoptotic cells at 100 uM measured after 24 hrs by Annexin V/PI staining based flowcytometry method (reference value: 3.12%); assay type: functional
# MCF-10A = experiment: Cytotoxicity against human MCF-10A cells; assay type: cell-based
# MDA-MB-231 [20] = experiment: Induction of apoptosis in human MDA-MB-231 cells assessed as late apoptotic cells at 200 uM measured after 24 hrs by Annexin V/PI staining based flowcytometry method (reference value: 1.81%); assay type: functional
# MDA-MB-231 [21] = experiment: Induction of apoptosis in human MDA-MB-231 cells assessed as viable cells at 200 uM measured after 24 hrs by Annexin V/PI staining based flowcytometry method (reference value: 94.63%); assay type: functional; settings: read-out: Activity
# MDA-MB-231 [22] = experiment: Induction of apoptosis in human MDA-MB-231 cells assessed as late apoptotic cells at 50 uM measured after 24 hrs by Annexin V/PI staining based flowcytometry method (reference value: 1.81%); assay type: functional
# [23] = biological target: T1, Protein cereblon/Eukaryotic elongation factor 2 kinase (Homo sapiens); experiment: Protac activity at eEF2K/E3 ubiquitin ligase in human MDA-MB-231 cells assessed as degradation of eEF2K at 12.5 to 200 uM measured after 24 hrs by western blot assay; assay type: cell-based; settings: dose 12.5-200 µM
# MDA-MB-231 [24] = experiment: Antiproliferative activity against human MDA-MB-231 cells at 100 uM measured by crystal violet staining based colony forming assay; assay type: functional, cell-based
# MDA-MB-231 [25] = experiment: Effect on eEF2K expression in human MDA-MB-231 cells at 10 uM measured after 2 hrs by western blot assay; assay type: functional, cell-based
smiles,measurement,setting,value
NC(=O)c1cc2c(=O)n(CC(=O)NCCCCCNC(=O)COc3cccc4c3C(=O)N(C3CCC(=O)NC3=O)C4=O)c(=O)n(C3CC3)c2cc1N (configuration not stated),Activity,[1],inactive
Cc1ccc(C2=NC(C)(O)CC(C(C)C)[Se]2)cc1 (configuration not stated),pIC50,[2],6.51
NC(=O)c1cc2c(=O)n(CC(=O)NCCOCCNc3cccc4c3C(=O)N(C3CCC(=O)NC3=O)C4=O)c(=O)n(C3CC3)c2cc1N (configuration not stated),Activity,[1],inactive
CCn1c(=O)n(CC(=O)NCCCNc2cccc3c2C(=O)N(C2CCC(=O)NC2=O)C3=O)c(=O)c2cc(C(N)=O)c(N)nc21 (configuration not stated),Activity,[1],20%
NC(=O)c1cc2c(=O)n(CC(=O)NCCCCCCNc3cccc4c3C(=O)N(C3CCC(=O)NC3=O)C4=O)c(=O)n(C3CC3)c2nc1N (configuration not stated),Activity,[1],inactive
CCn1c(=O)n(CC(=O)NCCNc2cccc3c2C(=O)N(C2CCC(=O)NC2=O)C3=O)c(=O)c2cc(C(N)=O)c(N)nc21 (configuration not stated),Activity,[1],inactive
NC(=O)c1cc2c(=O)n(CC(=O)NCCCCNc3cccc4c3C(=O)N(C3CCC(=O)NC3=O)C4=O)c(=O)n(C3CC3)c2nc1N (configuration not stated),Activity,[1],inactive
CCn1c(=O)n(CC(=O)NCCCCCNC(=O)COc2cccc3c2C(=O)N(C2CCC(=O)NC2=O)C3=O)c(=O)c2cc(C(N)=O)c(N)cc21 (configuration not stated),Activity,[1],32%
CCn1c(=O)n(CC(=O)NCCOCCNc2cccc3c2C(=O)N(C2CCC(=O)NC2=O)C3=O)c(=O)c2cc(C(N)=O)c(N)cc21 (configuration not stated),Activity,[1],15%
CCn1c(=O)n(CC(=O)NCCOCCNC(=O)COc2cccc3c2C(=O)N(C2CCC(=O)NC2=O)C3=O)c(=O)c2cc(C(N)=O)c(N)nc21 (configuration not stated),Activity,MDA-MB-231 [3],0.68%
same,Activity,MDA-MB-231 [4],Active
same,Activity,MDA-MB-231 [5],Active
same,Activity,[6],inactive
same,Activity,MDA-MB-231 [7],1.6%
same,Activity,[8],Active
same,Activity,MDA-MB-231 [9],24.72%
same,viability at 50 µM,MDA-MB-231 [10],89.9%
same,Activity,MDA-MB-231 [11],5.29%
same,Activity,[12],Active
same,Activity,MDA-MB-231 [13],Active
same,viability at 100 µM,MDA-MB-231 [14],84.4%
same,Activity,MDA-MB-231 [15],1.57%
same,Activity,MDA-MB-231 [16],7.38%
same,Activity,MDA-MB-231 [17],Active
same,Activity,[18],inactive
same,Activity,[1],56.7%
same,Activity,MDA-MB-231 [19],7.51%
same,Activity,MCF-10A,Toxic
same,Activity,MDA-MB-231 [20],6.12%
same,viability at 200 µM,MDA-MB-231 [21],67.6%
same,Activity,MDA-MB-231 [22],3.24%
same,Activity,[23],Active
same,Activity,MDA-MB-231 [24],Active
NC(=O)c1cc2c(=O)n(CC(=O)NCCCCCNc3cccc4c3C(=O)N(C3CCC(=O)NC3=O)C4=O)c(=O)n(C3CC3)c2cc1N (configuration not stated),Activity,[1],inactive
CCn1c(=O)c2cc(C(N)=O)c(N)nc2n(C2CC2)c1=O,Activity,MDA-MB-231 [5],Active
same,Activity,MDA-MB-231 [24],Active
NC(=O)c1cc2c(=O)n(CC(=O)NCCCCCCNC(=O)COc3cccc4c3C(=O)N(C3CCC(=O)NC3=O)C4=O)c(=O)n(C3CC3)c2nc1N (configuration not stated),Activity,[1],inactive
NC(=O)c1cc2c(=O)n(CC(=O)NCCCCNC(=O)COc3cccc4c3C(=O)N(C3CCC(=O)NC3=O)C4=O)c(=O)n(C3CC3)c2nc1N (configuration not stated),Activity,[1],inactive
NC(=O)c1cc2c(=O)n(CC(=O)NCCNc3cccc4c3C(=O)N(C3CCC(=O)NC3=O)C4=O)c(=O)n(C3CC3)c2nc1N (configuration not stated),Activity,[1],inactive
NC(=O)c1cc2c(=O)n(CC(=O)NCCNC(=O)COc3cccc4c3C(=O)N(C3CCC(=O)NC3=O)C4=O)c(=O)n(C3CC3)c2nc1N (configuration not stated),Activity,[1],inactive
CCn1c(=O)n(CC(=O)NCCCCCNc2cccc3c2C(=O)N(C2CCC(=O)NC2=O)C3=O)c(=O)c2cc(C(N)=O)c(N)cc21 (configuration not stated),Activity,[1],24%
NC(=O)c1cc2c(=O)n(CC(=O)NCCCNC(=O)COc3cccc4c3C(=O)N(C3CCC(=O)NC3=O)C4=O)c(=O)n(C3CC3)c2cc1N (configuration not stated),Activity,[1],inactive
N#CC1=C(N)SC(N)=C(C#N)C1c1ccccc1F,pIC50,[2],4.22
CCn1c(=O)n(CC(=O)NCCCCNc2cccc3c2C(=O)N(C2CCC(=O)NC2=O)C3=O)c(=O)c2cc(C(N)=O)c(N)nc21 (configuration not stated),Activity,[1],35%
CCn1c(=O)n(CC(=O)NCCNC(=O)COc2cccc3c2C(=O)N(C2CCC(=O)NC2=O)C3=O)c(=O)c2cc(C(N)=O)c(N)nc21 (configuration not stated),Activity,[1],10%
O=C1CCC(N2C(=O)c3ccccc3C2=O)C(=O)N1 (configuration not stated),Activity,MDA-MB-231 [25],inactive
NC(=O)c1cc2c(=O)n(CC(=O)NCCCNc3cccc4c3C(=O)N(C3CCC(=O)NC3=O)C4=O)c(=O)n(C3CC3)c2nc1N (configuration not stated),Activity,[1],inactive
CCn1c(=O)n(CC(=O)NCCCCNC(=O)COc2cccc3c2C(=O)N(C2CCC(=O)NC2=O)C3=O)c(=O)c2cc(C(N)=O)c(N)nc21 (configuration not stated),Activity,[1],26%
NC(=O)c1cc2c(=O)n(CC(=O)NCCOCCNC(=O)COc3cccc4c3C(=O)N(C3CCC(=O)NC3=O)C4=O)c(=O)n(C3CC3)c2cc1N (configuration not stated),Activity,[1],inactive
CCn1c(=O)n(CC(=O)NCCCCCCNC(=O)COc2cccc3c2C(=O)N(C2CCC(=O)NC2=O)C3=O)c(=O)c2cc(C(N)=O)c(N)nc21 (configuration not stated),Activity,[1],35.3%
CCn1c(=O)n(CC(=O)NCCCNC(=O)COc2cccc3c2C(=O)N(C2CCC(=O)NC2=O)C3=O)c(=O)c2cc(C(N)=O)c(N)cc21 (configuration not stated),Activity,[1],15.4%
CCn1c(=O)n(CC(=O)NCCCCCCNc2cccc3c2C(=O)N(C2CCC(=O)NC2=O)C3=O)c(=O)c2cc(C(N)=O)c(N)nc21 (configuration not stated),Activity,[1],20%
